This passage reports relative viability results from the supplement of paper PMC10307832.

What all share (test): relative viability (nuclei count vs DMSO), 5 days (fraction); higher = more cells survive
Compound in assay [1]: O=c1[nH]cc(F)c(=O)[nH]1 [5-Fluorouracil] + Cc1nc(Nc2ncc(C(=O)Nc3c(C)cccc3Cl)s2)cc(N2CCN(CCO)CC2)n1 [Dasatinib] (partner 0.075 µM)
The gist of the method:
(§1)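 Lung cancer cell lines, seeded in 1536-well plates, were treated the following day by pin tool with a single drug or with five library-drug doses (not always all listed) in √10 steps on top of a fixed anchor-drug dose. Cells were fixed and nuclei stained in one step after 5 days, and nuclei were counted. Relative viability is the nuclei count for treated wells divided by that for vehicle wells, reported as medians of duplicate plates.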

Compound in assay [2]: O=c1[nH]cc(F)c(=O)[nH]1 [5-Fluorouracil] + CC1(C)CCC(c2ccc(Cl)cc2)=C(CN2CCN(c3ccc(C(=O)NS(=O)(=O)c4ccc(N[C@H](CCN5CCOCC5)CSc5ccccc5)c(S(=O)(=O)C(F)(F)F)c4)cc3)CC2)C1 [Navitoclax] (partner 0.5 µM)
A digest of the protocol:
as §1

Compound in assay [3]: O=c1[nH]cc(F)c(=O)[nH]1 [5-Fluorouracil] + Nc1nc2[nH]cc(CCc3ccc(C(=O)N[C@@H](CCC(=O)O)C(=O)O)cc3)c2c(=O)[nH]1 [Pemetrexed] (partner 0.2 µM)
The gist of the method: as §1

Compound in assay [4]: O=c1[nH]cc(F)c(=O)[nH]1 [5-Fluorouracil] + COc1cc2c(Oc3ccc(NC(=O)C4(C(=O)Nc5ccc(F)cc5)CC4)cc3F)ccnc2cc1OCCCN1CCOCC1 [Foretinib] (partner 0.25 µM)
The gist of the method: as §1

In the case of NCI-H441, the relative viability came to 0.748 in assay [1] (first compound 0.02 µM); 0.63 in assay [1] (first compound 0.2 µM); 0.49 in assay [1] (first compound 0.6325 µM); 0.278 in assay [1] (first compound 2 µM); 1 in assay [2] (first compound 0.02 µM); 0.502 in assay [2] (first compound 0.2 µM). For the same cell line, the relative viability in assay [2] (first compound 0.6325 µM) worked out at 0.507; in assay [2] (first compound 2 µM), 0.409; in assay [3] (first compound 0.02 µM), 0.262; in assay [3] (first compound 0.2 µM), 0.27; in assay [3] (first compound 0.6325 µM), 0.235; in assay [3] (first compound 2 µM), 0.239. Moreover, the relative viability in assay [4] (first compound 0.02 µM) is 1.01; in assay [4] (first compound 0.2 µM) it was 0.887; in assay [4] (first compound 0.6325 µM), 0.558; in assay [4] (first compound 2 µM), 0.361.
NCI-H460: the relative viability stood at 0.584 in assay [1] (first compound 0.02 µM); 0.488 in assay [1] (first compound 0.2 µM); 0.159 in assay [1] (first compound 0.6325 µM); 0.0618 in assay [1] (first compound 2 µM); 1.5 in assay [2] (first compound 0.02 µM); 0.461 in assay [2] (first compound 0.2 µM). Moreover, the relative viability was determined as 0.165 in assay [2] (first compound 0.6325 µM); 0.0655 in assay [2] (first compound 2 µM); 0.0627 in assay [3] (first compound 0.02 µM); 0.0623 in assay [3] (first compound 0.2 µM); 0.0575 in assay [3] (first compound 0.6325 µM); 0.0952 in assay [3] (first compound 2 µM). Besides, the relative viability in assay [4] (first compound 0.02 µM) is 1.02; in assay [4] (first compound 0.2 µM) it was 0.73; in assay [4] (first compound 0.6325 µM) it was 0.156; in assay [4] (first compound 2 µM), 0.0731.
Take NCI-H520: the relative viability in assay [1] (first compound 0.02 µM) was found to be 0.152; in assay [1] (first compound 0.2 µM), 0.234; in assay [1] (first compound 0.6325 µM) it was 0.174; in assay [1] (first compound 2 µM), 0.142; in assay [2] (first compound 0.02 µM), 0.81; in assay [2] (first compound 0.2 µM), 1.19. Moreover, the relative viability in assay [2] (first compound 0.6325 µM) turned out to be 0.873; in assay [2] (first compound 2 µM) it was 0.406; in assay [3] (first compound 0.02 µM), 0.625; in assay [3] (first compound 0.2 µM), 0.742; in assay [3] (first compound 0.6325 µM), 0.541; in assay [3] (first compound 2 µM), 0.41. For the same cell line, the relative viability in assay [4] (first compound 0.02 µM) turned out to be 0.555; in assay [4] (first compound 0.2 µM) it was 0.697; in assay [4] (first compound 0.6325 µM), 0.641; in assay [4] (first compound 2 µM), 0.563.
In the case of NCI-H522, the relative viability in assay [1] (first compound 0.02 µM) was found to be 0.844; in assay [1] (first compound 0.2 µM), 0.852; in assay [1] (first compound 0.6325 µM), 0.979; in assay [1] (first compound 2 µM), 0.868; in assay [3] (first compound 0.02 µM) it was 0.891; in assay [3] (first compound 0.2 µM) it was 1.1. Moreover, the relative viability in assay [3] (first compound 0.6325 µM) was 1.03; in assay [3] (first compound 2 µM) it was 0.95.
Turning to NCI-H650, the relative viability in assay [1] (first compound 0.02 µM) stood at 0.444; in assay [1] (first compound 0.2 µM), 0.341; in assay [1] (first compound 0.6325 µM) it was 0.287; in assay [1] (first compound 2 µM), 0.336; in assay [3] (first compound 0.02 µM), 0.762; in assay [3] (first compound 0.2 µM) it was 0.649. Also, the relative viability worked out at 0.36 in assay [3] (first compound 0.6325 µM); 0.317 in assay [3] (first compound 2 µM); 0.976 in assay [4] (first compound 0.02 µM); 0.617 in assay [4] (first compound 0.2 µM); 0.356 in assay [4] (first compound 0.6325 µM); 0.308 in assay [4] (first compound 2 µM).
NCI-H661: the relative viability in assay [1] (first compound 0.02 µM) amounted to 0.962; in assay [1] (first compound 0.2 µM), 1.01; in assay [1] (first compound 0.6325 µM) it was 0.81; in assay [1] (first compound 2 µM), 0.851; in assay [3] (first compound 0.02 µM) it was 0.998; in assay [3] (first compound 0.2 µM), 0.905. Besides, the relative viability in assay [3] (first compound 0.6325 µM) was 0.947; in assay [3] (first compound 2 µM) it was 0.883; in assay [4] (first compound 0.02 µM) it was 1.03; in assay [4] (first compound 0.6325 µM) it was 1.02; in assay [4] (first compound 2 µM) it was 0.972.
